Measurements: PubChem BioAssay (NCI)
Where “and” joins values, the source holds several entries; their conditions need not be identical. Identical values can stand only once.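 Each compound was tested at five concentrations against cells in 96-well plates for 48 hours. GI50 = concentration required for 50% inhibition of growth. The concentration for full growth arrest is given as TGI.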

Key:
Experiment in all cases: NCI-60 cell line screen, 48 h
[1] = tested on: DU-145 prostate
[2] = tested on: OVCAR-8 ovarian
[3] = tested on: SK-MEL-2 melanoma
[4] = tested on: MDA-MB-435
[5] = tested on: K-562 leukemia
[6] = tested on: HOP-62 NSCLC
[7] = tested on: UACC-257 melanoma
[8] = tested on: HT29 colon
[9] = tested on: OVCAR-3 ovarian
[10] = tested on: M14 melanoma

| Structure (SMILES) | GI50 [1] [µM] | TGI [1] | GI50 [2] [µM] | TGI [2] | GI50 [3] [µM] | TGI [3] | GI50 [4] [µM] | TGI [4] | GI50 [5] [µM] | TGI [5] | GI50 [6] [µM] | TGI [6] | GI50 [7] [µM] | TGI [7] | GI50 [8] | TGI [8] | GI50 [9] [µM] | TGI [9] | GI50 [10] [µM] | TGI [10] |
| --- | --- | --- | --- | --- | --- | --- | --- | --- | --- | --- | --- | --- | --- | --- | --- | --- | --- | --- | --- | --- |
| CCCCCSc1ccc2nc(NC(=O)OCC)sc2c1 | 1.72 | > 100 µM | 4.85 | > 100 µM | 0.431 | 25.3 µM | 0.194 | 0.763 µM | 0.393 | > 100 µM | 0.491 | 31.1 µM | > 100 | > 100 µM | 0.348 µM | > 100 µM | 0.346 | 2.14 µM | 0.446 | > 100 µM |
| COC(=O)c1c2c(c(C)[n+]([O-])c1C)C(=O)C(NCc1ccccc1)=CC2=O | 3.5 | 11.2 µM | 2.32 | 8.73 µM | 2.63 | 9.48 µM | 1.81 | 3.3 µM | 2.94 | 16.3 µM | 3.1 | 17.9 µM | 1.7 | 4.02 µM | 1.97 µM | 10.2 µM | 0.613 | 3.67 µM | 1.97 | 4.35 µM |
| CC(=O)O[C@@H]1c2c(c3c(=O)c4cccc(O)c4c(=O)c=3c2=[N+]=[N-])[C@H](OC(C)=O)[C@@H](OC(C)=O)[C@]1(C)O | 0.295 | 1.05 µM and 1.17 µM | 0.117 | 0.77 µM and 0.461 µM | 0.495 | 1.63 µM and 1.18 µM | 0.27 | 1.42 µM and 0.88 µM | 0.0909 | 3.1 µM and 0.444 µM | – | 1.37 µM and 1.98 µM | 0.295 | 1.4 µM and 0.815 µM | 0.135 µM and 0.113 µM | 0.605 µM and 0.265 µM | 0.407 | 1.23 µM and 1.4 µM | 0.293 | 0.992 µM and 0.357 µM |
| O=C1CN=C(c2ccc[nH]2)c2cc(Cl)ccc2N1 | > 100 | > 100 µM | > 100 | > 100 µM | > 100 | > 100 µM | > 100 | > 100 µM | 54 | > 100 µM | > 100 | > 100 µM | > 100 | > 100 µM | 38.9 µM | > 100 µM | > 100 | > 100 µM | > 100 | > 100 µM |
| CCCCN(CCCC)P(=O)(Oc1ccccc1)Oc1ccccc1 | 11.1 | 24 µM | 11.1 | 27.4 µM | 11.8 | 28 µM | 6.2 | 19.9 µM | 7.01 | > 100 µM | 14 | 27.7 µM | 8.04 | 22.4 µM | 4.95 µM | 21.6 µM | 6.44 | 18.7 µM | 11.6 | 25.6 µM |
| CN1CCc2ccccc2C1Cc1ccccc1NC(=O)c1sc2ccccc2c1Cl (stereo not drawn) | – | > 100 µM | – | > 100 µM | – | > 100 µM | – | > 100 µM | – | > 100 µM | – | > 100 µM | – | > 100 µM | – | – | – | > 100 µM | – | > 100 µM |
| COc1cc(OC)c(C(=O)/C=C/c2ccc(C#N)cc2)c(OC)c1 | 1.54 | 6.27 µM | 1.98 | > 50 µM | 1.46 | 4.43 µM | 1.32 | 6.69 µM | 1.54 | > 50 µM | 1.44 | 4.24 µM | 3.35 | 42.2 µM | 1.88 µM | 8.28 µM | 1.77 | 7.93 µM | 1.07 | 3.15 µM |
| Oc1nc(N2CCOCC2)sc1/C=C1\C=Nc2ccccc21 | > 100 | > 100 µM | > 100 | > 100 µM | > 100 | > 100 µM | > 100 | > 100 µM | > 100 | > 100 µM | > 100 | > 100 µM | > 100 | > 100 µM | 65.2 µM | > 100 µM | > 100 | > 100 µM | > 100 | > 100 µM |
| Cc1[nH]c2ccccc2c1CO | 0.0457 | 18.1 µM | 31 | > 100 µM | 16.7 | 36.6 µM | 16.8 | 36.6 µM | 18.6 | 61.4 µM | 28.1 | > 100 µM | 24.1 | 60.2 µM | 15.9 µM | 34.7 µM | 5.54 | 19.6 µM | 16.4 | 34.9 µM |
| O=C(Nc1ccc(I)cc1F)c1cc(Br)ccc1O | 0.865 | > 67.8 µM | 0.83 | > 24.2 µM | 0.386 | 2.18 µM | 0.652 | 4.64 µM | 0.431 | > 100 µM | 2.03 | 7.04 µM | 0.707 | 4.29 µM | 3.29 µM | > 35.1 µM | 0.457 | 11.3 µM | 0.603 | 4.49 µM |
| CCOC(=O)c1c(NN2CCN(CC(F)(F)F)CC2)oc(/C=C2\C=Nc3ncccc32)c1O | 4.75 | 23.7 µM | 4.14 | 20.6 µM | 2.25 | 4.8 µM | 3.36 | 16.8 µM | 2.14 | > 100 µM | 5.03 | 21.8 µM | 6.45 | 25.1 µM | 2.47 µM | 17.1 µM | 4.06 | 19.4 µM | 4.77 | 24.4 µM |
| COc1ccc(OC)c(N2CC(O)=C(c3nc4ccccc4s3)C2=N)c1 | > 100 | > 100 µM | 98.7 | > 100 µM | 26.1 | > 100 µM | 20.8 | > 100 µM | 23.6 | > 100 µM | > 100 | > 100 µM | > 100 | > 100 µM | 42.8 µM | > 100 µM | 74.1 | > 100 µM | > 100 | > 100 µM |
